Results on two molecules are retold here after patent US20160000737A1, “TREATMENT OF PETS WITH SIRTUIN ACTIVATORS” (NUSIRT SCIENCES, INC., priority 2013, published 2016).

Series [1] relates to inflammatory biomarkers (C-reactive protein, IL-6, MCP-1, adiponectin). Kind of series: Inflammatory biomarkers in diet-induced obese mice. Type of series: in vivo, c57/BL6 mice. To be noted: for Adiponectin / C-reactive protein / IL-6 / MCP-1: 6 weeks. The procedure: (§1) The animals were housed in polypropylene cages at a room temperature of 22±2° C. and regime of 12 h light/dark cycle. The animals had free access to water and their experimental food throughout the experiment. At the of the treatment period (6 weeks) all animals were humanely euthanized, and blood and tissues collected for further experiments.

The subject of series [2] is diet-induced obese mice. Kind of series: microPET/CT glucose and palmitate uptake. The series is classed as in vivo, c57/BL6 mice. To be noted: 6 weeks. The procedure: at the end of the treatment period (6 weeks of treatment) subgroups of each treatment diet group (5 animals/group, 35 animals total) were used to measure whole body glucose and palmitate uptake via PET/CT Imaging. To visualize these compounds using microPET imaging, the glucose or palmitate was labeled with fluorine-18 (108 mins half life) or carbon-11 (20 mins half life), respectively. Each mouse was fasted for 4 hours, then anesthetized using 1-3% isoflurane delivered by nose cone or in a mouse-sized induction chamber purpose-built for small animal imaging protocols. While under anesthesia the mice were injected iv with <2 mCi of each tracer, then be left for a period of time (minutes to up˜1 hour) to allow the uptake of the tracer. During the scan, mice were kept warm using a thermostatically controlled heated bed and were treated with ophthalmic ointment prior to scanning Following the live scan the mice were returned to their cage and revived. Mice were monitored constantly during this time. Following live data acquisition the mice were sacrificed by isoflurane overdose and organs harvested for further experiments.

Series [3] deals with diet-induced obese mice. Kind of series: Oxygen consumption/substrate utilization in metabolic chambers (CLAMS). Type of series: in vivo, c57/BL6 mice. The procedure:
at the end of the obesity induction period (day 0 of treatment group) and at 2 weeks and 6 weeks of treatment, oxygen consumption and substrate utilization was measured via metabolic chambers using the Comprehensive Lab Animal Monitoring Systems (CLAMS, Columbus Instruments, Columbus, Ohio) in subgroups of each treatment group. Each animal was placed in individual cages without bedding that allow automated, non-invasive data collection. Each cage is an indirect open circuit calorimeter that provides measurement of oxygen consumption, carbon dioxide production, and concurrent measurement of food intake. All mice were acclimatized to the chambers for 24 hours prior to the experiment and maintained under the regular 12:12 light:dark cycle with free access to water and food. All experiments were started in the morning and data were collected for 24 hours. Each chamber was passed with 0.61 of air/min and was sampled for 2 min at 32-minute intervals. Exhaust O2 and CO2 content from each chamber was compared with ambient O2 and CO2 content. Food consumption was measured by electronic scales.

The subject of series [4] is diet-induced obese mice. Kind of series: Diet-induced obese mice on resveratrol/HMB/leucine diets: body weight, weight gain, adiposity. Type of series: in vivo, c57/BL6 mice. From the text:
Six week old male c57/BL6 mice were fed a high-fat diet with fat increased to 45% of energy (Research Diets D12451) for 6 weeks to induce obesity. At the end of this obesity induction period, animals were randomly divided into the following seven different diet treatment groups with 10 animals per group (overall 70 animals) and maintained on these diets for 6 weeks:
Group 1 (labeled “control group”): high-fat diet only (same as in obesity induction period (Research Diets D12451)).
This diet was modified for groups 2 to 7 in the following way:
Group 2 (labeled “low dose resveratrol”): high-fat diet mixed with 12.5 mg resveratrol/kg diet.
Group 3 (labeled “high dose resveratrol”): high-fat diet mixed with 225 mg resveratrol/kg diet.
Group 4 (labeled “low dose HMB”): high-fat diet mixed with 2 g of the calcium salt of hydroxymethylbutyrate, a naturally occurring metabolite of leucine (CaHMB).
Group 5 (labeled “low dose resveratrol plus low dose CaHMB”): high fat-diet mixed with 12.5 mg of resveratrol/kg diet and 2 g CaHMB/kg diet.
Group 6 (labeled “low dose resveratrol plus high dose HMB”): high fat-diet mixed with 12.5 mg of resveratrol/kg diet and 10 g CaHMB/kg diet.
The animals were housed in polypropylene cages at a room temperature of 22±2° C. and regime of 12 h light/dark cycle. The animals had free access to water and their experimental food throughout the experiment. […]

In series [5] the target is T1, SIRT1 (Mus musculus, UniProt Q923E4).
T1 construct: effects of dietary treatments on adipose tissue Sirt1 activity; from tissue; host or cells: mouse adipose tissue
T1 sequence (Q923E4 1-737): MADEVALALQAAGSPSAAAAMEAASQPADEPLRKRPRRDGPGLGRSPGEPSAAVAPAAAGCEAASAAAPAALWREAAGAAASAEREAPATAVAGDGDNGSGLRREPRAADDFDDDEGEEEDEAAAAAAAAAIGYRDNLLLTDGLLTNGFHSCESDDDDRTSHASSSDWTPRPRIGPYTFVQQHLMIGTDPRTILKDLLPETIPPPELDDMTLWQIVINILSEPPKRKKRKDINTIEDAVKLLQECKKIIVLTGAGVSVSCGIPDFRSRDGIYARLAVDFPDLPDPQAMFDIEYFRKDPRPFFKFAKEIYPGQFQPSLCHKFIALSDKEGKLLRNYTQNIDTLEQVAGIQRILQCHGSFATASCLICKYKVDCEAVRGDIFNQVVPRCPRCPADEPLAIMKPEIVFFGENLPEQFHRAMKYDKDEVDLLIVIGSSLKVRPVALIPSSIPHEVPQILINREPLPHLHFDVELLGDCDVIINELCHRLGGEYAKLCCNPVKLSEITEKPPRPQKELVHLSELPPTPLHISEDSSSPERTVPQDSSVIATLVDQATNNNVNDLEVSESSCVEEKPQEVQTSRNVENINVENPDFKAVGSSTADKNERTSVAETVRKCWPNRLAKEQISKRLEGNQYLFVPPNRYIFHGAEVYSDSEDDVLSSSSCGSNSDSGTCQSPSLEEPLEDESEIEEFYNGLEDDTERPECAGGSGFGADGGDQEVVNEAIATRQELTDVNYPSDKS
Kind of series: Adipose tissue SIRT1 activity (SIRT1 Fluorimetric Drug Discovery Kit). Type of series: in vivo, c57/BL6 mice. The procedure:
SIRT1 activity was measured by using the SIRT1 Fluorimetric Drug Discovery Kit (BML-AK555, ENZO Life Sciences International, Inc. PA, USA). In this assay, SIRT1 activity is assessed by the degree of deacetylation of a standardized substrate containing an acetylated lysine side chain. The substrate utilized is a peptide containing amino acids 379-382 of human p53 (Arg-His-Lys-Lys[Ac]), an established target of SIRT1 activity; SIRT1 activity is directly proportional to the degree of deacetylation of Lys-382. Samples were incubated with peptide substrate (25 μM), and NAD^+ (500 μM) in a phosphate-buffered saline solution at 37° C. on a horizontal shaker for 45 minutes. The reaction was stopped with the addition of 2 mM nicotinamide and a developing solution that binds to the deacetylated lysine to form a fluorophore. Following 10 minutes incubation at 37° C., fluorescence was read in a plate-reading fluorometer at an excitation wavelength of 360 nm and an emission wavelength of 450 nm. Resveratrol ([…]) served as a SIRT1 activator and suramin sodium (25 mM) as a SIRT1 inhibitor; wells including each were utilized as positive and negative controls in each set of reactions. A standard curve was constructed using deacetylated substrate (0-10 μM). Data was normalized to cellular protein concentration measured via BCA-assay.

Series [6] has as its system diet-induced obese mice. Kind of series: Indices of insulin sensitivity (plasma glucose, insulin, HOMAIR). The series is classed as in vivo, c57/BL6 mice. The note with it: resveratrol at either dose, HMB, each alone. The procedure: Insulin sensitivity can be measured using a variety of techniques, including HOMAIR. HOMAIR, which is the homeostasis model assessment of insulin resistance can be used as a screening index of changes in insulin sensitivity. HOMAIR can be calculated via standard formula from fasting plasma insulin and glucose as follows: HOMAIR=[Insulin (uU/mL)×glucose (mM)]/22.5.
as §1

A short description of series [7]: Circulating level after dosing. The series is classed as in vivo.
Where [8] appears, read: high dose: 225 mg resveratrol/kg diet.
The mark [9] stands for this setting: low dose: 12.5 mg resveratrol/kg diet.

Marks after values point to notes of the source that are not given here.

On to `Oc1ccc(/C=C/c2cc(O)cc(O)c2)cc1` [Resveratrol, 3,5,4′-Trihydroxy-trans-stilbene], for which the “effect on MCP-1 or c-reactive protein” value in series [1] (HMB or low dose of resveratrol alone) is reported as “neither HMB nor a low dose of resveratrol exerted any effect”. Besides, the results for the “circulating IL-6” value in series [1] (high dose of resveratrol) and in series [1] (low dose of resveratrol alone) were “significantly reduced” and “no independent effect”, respectively. The results for the Adiponectin in series [1] (setting [8]) and in series [1] (setting [9]) were 14.8 ± 1.8^b ng/mL and 12.4 ± 1.1 ng/mL, respectively. Also, the C-reactive protein in series [1] (setting [8]) is reported as 123.9 ± 35.3^a ng/mL; in series [1] (setting [9]), 134.8 ± 8.5^a ng/mL. The IL-6 in series [1] (setting [8]) is listed as 14.1 ± 1.3^b pg/mL; in series [1] (setting [9]) it was 23.2 ± 2.9^a pg/mL. Also, the MCP-1 in series [1] (setting [8]) is listed as 27.3 ± 6.8^b pg/mL; in series [1] (setting [9]), 104.4 ± 16.5^a pg/mL. For the same molecule, the “Muscle Glucose Uptake (18F-deoxyglucose SUV)” value in series [2] (setting [8]) is on record as 3.87 ± 0.32^a SUV; in series [2] (setting [9]), 3.63 ± 1.29^a SUV. The RER entry in series [3] (high dose of resveratrol) is given as “decreased”. The “heat production and skeletal muscle fat oxidation” value in series [3] (high dose of resveratrol) is “significantly increased”. The results for the “Respiratory Exchange Ratio (24 hr RER)” value in series [3] (setting [8]) and in series [3] (setting [9]) were 0.825 ± 0.007^b and 0.847 ± 0.008^a, respectively. Besides, the “effect on body weight, weight gain, or visceral adipose tissue mass” value in series [4] (high dose resveratrol) is listed as “no significant effect”. Moreover, the “effect on body weight, weight gain, visceral adipose tissue mass, fat oxidation, respiratory exchange ratio (RER), or heat production” value in series [4] (low doses, each alone) is “no significant independent effect”. Moreover, the “adipose tissue Sirt1 activity” value is on record as “non-significant trend towards an increase” in series [5] (high dose resveratrol) and “Neither resveratrol nor HMB exerted significant independent effects” in series [5] (resveratrol or HMB alone). For the same molecule, in series [6], the “effect on plasma insulin or on muscle glucose uptake” value is listed as “Neither resveratrol at either dose nor HMB exerted any significant effect”. Moreover, the “circulating level of resveratrol” value was “about 200 nM” in series [7] (oral dosing of about 10 mg, subject about 30 lb); “about 200 nM” in series [7] (oral dosing of about 50 mg, subject about 150 lb); “about 0.5 mM” in series [7] (oral dosing of about 220 mg, subject about 30 lb); “about 0.5 mM” in series [7] (oral dosing of about 1100 mg, subject about 150 lb).

As for `CC(C)C[C@H](N)C(=O)O` [leucine, L-leucine], the “circulating level of leucine” value in series [7] (dosing of about 60 mg leucine, subject weighing about 30 lb) is given as “about 0.25 mM”; in series [7] (dosing of about 225 mg leucine, subject weighing about 30 lb), “about 0.5 mM”; in series [7] (dosing of about 300 mg leucine, subject weighing about 150 lb), “about 0.25 mM”; in series [7] (dosing of about 1,125 mg leucine, subject weighing about 150 lb), “about 0.5 mM”.
